Measured values as given in the supplement of paper PMC10307832.

Assays:
Assay in all cases: relative viability (nuclei count vs DMSO), 5 days (fraction); higher = more cells survive
[1] = compound: CCN(CCO)CCCC(C)Nc1ccnc2cc(Cl)ccc12 [Hydroxychloroquine] + O=C(CCCCCCC(=O)Nc1ccccc1)NO [Vorinostat] (partner 1 µM)
Summary of the method: (§1)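 The day after seeding in 1536-well plates, lung cancer cell lines were treated by pin tool with a single drug, or with a fixed anchor-drug dose together with five library-drug doses (not always all listed) in √10 steps. After 5 days, a combined fix-and-stain solution (final 0.05% Triton X-100, 1% formaldehyde, 1 ug/ml Hoechst) was added. Nuclei counted on 4× images gave relative viability as treated counts over vehicle counts, reported as the median of duplicate plates.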

[2] = compound: CCN(CCO)CCCC(C)Nc1ccnc2cc(Cl)ccc12 [Hydroxychloroquine] + Nc1nc2[nH]cc(CCc3ccc(C(=O)N[C@@H](CCC(=O)O)C(=O)O)cc3)c2c(=O)[nH]1 [Pemetrexed] (partner 0.2 µM)
Summary of the method: as §1

[3] = compound: CCN(CCO)CCCC(C)Nc1ccnc2cc(Cl)ccc12 [Hydroxychloroquine] + Cc1nc(Nc2ncc(C(=O)Nc3c(C)cccc3Cl)s2)cc(N2CCN(CCO)CC2)n1 [Dasatinib] (partner 0.075 µM)
Summary of the method: as §1

[4] = compound: CCN(CCO)CCCC(C)Nc1ccnc2cc(Cl)ccc12 [Hydroxychloroquine] + CC(=O)c1c(C)c2cnc(Nc3ccc(N4CCNCC4)cn3)nc2n(C2CCCC2)c1=O [Palbociclib] (partner 0.5 µM)
Summary of the method: as §1

Cell Line | relative viability ([1]; first compound 0.5 µM) | relative viability ([1]; first compound 1.581 µM) | relative viability ([1]; first compound 5 µM) | relative viability ([1]; first compound 15.81 µM) | relative viability ([1]; first compound 50 µM) | relative viability ([2]; first compound 0.5 µM) | relative viability ([2]; first compound 1.581 µM) | relative viability ([2]; first compound 5 µM) | relative viability ([2]; first compound 15.81 µM) | relative viability ([2]; first compound 50 µM) | relative viability ([3]; first compound 0.5 µM) | relative viability ([3]; first compound 1.581 µM) | relative viability ([3]; first compound 5 µM) | relative viability ([3]; first compound 15.81 µM) | relative viability ([3]; first compound 50 µM) | relative viability ([4]; first compound 0.5 µM) | relative viability ([4]; first compound 1.581 µM) | relative viability ([4]; first compound 5 µM) | relative viability ([4]; first compound 15.81 µM) | relative viability ([4]; first compound 50 µM)
NCI-H1944 | 0.553 | 0.487 | 0.46 | 0.478 | 0.56 | 0.691 | 0.586 | 0.531 | 0.586 | 0.648 | 0.206 | 0.184 | 0.23 | 0.202 | 0.194 | 0.301 | 0.314 | 0.319 | 0.29 | 0.346
NCI-H1975 | 0.682 | 0.704 | 0.8 | 0.742 | 0.717 | 0.281 | 0.325 | 0.309 | 0.297 | 0.301 | 0.404 | 0.376 | 0.322 | 0.502 | 0.412 | 0.47 | 0.53 | 0.603 | 0.615 | 0.789
NCI-H1993 | 0.828 | 0.837 | 0.599 | 0.656 | 0.727 | 0.577 | 0.507 | 0.623 | 0.601 | 0.597 | 0.597 | 0.699 | 0.87 | 0.547 | 0.566 | 0.6 | 0.575 | 0.692 | 0.662 | 0.693
NCI-H2009 | 0.764 | 0.718 | 0.75 | 0.747 | 0.729 | 1.07 | 0.991 | 1.02 | 1.07 | 1.01 | 0.326 | 0.253 | 0.312 | 0.298 | 0.329 | 0.195 | 0.209 | 0.212 | 0.237 | 0.197
NCI-H2023 | 0.788 | 0.574 | 0.687 | 0.706 | 0.85 | 0.267 | 0.22 | 0.246 | 0.238 | 0.295 | 0.624 | 0.478 | 0.563 | 0.542 | 0.617 | 0.376 | 0.431 | 0.349 | 0.396 | 0.386
NCI-H2085 | 0.853 | 0.63 | 0.822 | 0.847 | 0.873 | 0.885 | 0.773 | 0.838 | 0.809 | 0.9 | 0.274 | 0.267 | 0.223 | 0.274 | 0.232 | 0.473 | 0.422 | 0.48 | 0.484 | 0.455
NCI-H2087 | 0.719 | 0.74 | 0.778 | 0.798 | 0.609 | 0.634 | 0.669 | 0.7 | 0.709 | 0.771 | 0.96 | 0.77 | 0.794 | 0.954 | 0.969 | 0.189 | 0.227 | 0.231 | 0.189 | 0.213
NCI-H2126 | 0.834 | 0.728 | 0.749 | 0.733 | 0.897 | 0.709 | 0.636 | 0.666 | 0.653 | 0.716 | 0.724 | 0.564 | 0.596 | 0.622 | 0.615 | 0.34 | 0.341 | 0.34 | 0.333 | 0.379
